Data published in publication PMC6934184, “Selective DNA-PKcs inhibition extends the therapeutic index of localized radiotherapy and chemotherapy” (The Journal of Clinical Investigation, 2019).

Target: T1, RPS6KA6 (RSK4) (Homo sapiens, UniProt Q9UK32)
T1 construct: purchased Thermo Fisher Scientific (Life Technologies) SelectScreen
Assay: SelectScreen Z'LYTE
Assay type: biochemical
Outline: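 Percent values come from Thermo SelectScreen profiling of NU5455, combining activity and binding assays. CSF1R was run in Z'LYTE format at Km app ATP, and CAMK1 in Adapta format with ATP listed at 10.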

T1 sequence (Q9UK32 whole entry): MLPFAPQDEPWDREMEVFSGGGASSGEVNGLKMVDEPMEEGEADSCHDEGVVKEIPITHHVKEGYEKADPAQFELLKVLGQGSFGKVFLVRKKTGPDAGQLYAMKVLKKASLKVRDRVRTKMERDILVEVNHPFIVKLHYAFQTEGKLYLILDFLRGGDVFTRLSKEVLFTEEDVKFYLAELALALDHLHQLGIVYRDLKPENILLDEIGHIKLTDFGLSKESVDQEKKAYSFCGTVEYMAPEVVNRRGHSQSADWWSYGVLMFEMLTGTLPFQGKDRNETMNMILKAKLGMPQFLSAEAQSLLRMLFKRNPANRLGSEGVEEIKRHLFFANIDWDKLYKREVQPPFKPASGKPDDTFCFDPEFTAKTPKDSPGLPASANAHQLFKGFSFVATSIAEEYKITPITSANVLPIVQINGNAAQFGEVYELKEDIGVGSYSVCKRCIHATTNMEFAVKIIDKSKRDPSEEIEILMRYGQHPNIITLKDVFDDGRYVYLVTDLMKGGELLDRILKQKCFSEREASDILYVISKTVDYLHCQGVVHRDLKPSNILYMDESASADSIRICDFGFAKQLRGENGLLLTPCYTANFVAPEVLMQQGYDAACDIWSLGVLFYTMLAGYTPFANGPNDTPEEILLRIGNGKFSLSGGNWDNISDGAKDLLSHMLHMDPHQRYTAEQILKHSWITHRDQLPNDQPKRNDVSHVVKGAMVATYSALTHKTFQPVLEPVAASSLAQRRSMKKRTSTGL

`CN(C(=O)CN1CCOCC1)c1ccc2sc3c(-c4cccc5c(=O)cc(N6CC7CCC(C6)O7)oc45)cccc3c2c1` [NU5455] was tested, and the inhibition at 1 µM was 3.8%.
